ChEMBL document CHEMBL4152183, “Anti-inflammatory effects of flavonoids in neurodegenerative disorders” (Eur J Med Chem, 2018)
pIC50: −log10 of the molar value.

System: BV-2
Assay: Antiinflammatory activity in mouse BV2 cells assessed as inhibition of LPS-induced nitric oxide production pretreated for 1 hr followed by LPS addition and measured after 24 hrs by Griess assay
Format: functional, cell-based

| SMILES | pIC50 |
| --- | --- |
| O=C(/C=C/c1ccc(O)c(O)c1)c1ccc(O)cc1O [BUTEIN] | 4.96 |
| O=c1c(O)c(-c2ccc(O)c(O)c2)oc2cc(O)ccc12 [FISETIN] | 4.87 |
